Experimental data from patent publication US8946266B2, “Substituted triazole and imidazole derivatives as gamma secretase modulators” (Janssen Pharmaceuticals, Inc., priority 2009, dated 2015).

Assays:
Aβ42 [1] = assay: γ-secretase-modulating activity, Method 2: Aβ42 Alphalisa in supernatant of SKNBE2 cells carrying APP 695-wild type (Table 3b); format: cell-based; settings: overnight
In short: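 SKNBE2 cells expressing wild-type APP695 were incubated overnight at 37° C. with test compound. Secreted Aβ42 was then measured by AlphaLISA, using a C-terminal Aβ42 antibody paired with an N-terminal Aβ antibody. IC50 came from a 4-parameter fit of percent of compound-free control.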

Aβtotal [2] = assay: γ-secretase-modulating activity, Method 2: Aβtotal Alphalisa in supernatant of SKNBE2 cells carrying APP 695-wild type (Table 3b); format: cell-based; settings: overnight, read-out: IC50 Aβtot
In short: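 SKNBE2 cells expressing wild-type APP 695 were incubated overnight at 37 °C, 5% CO2 with test compound at a range of concentrations. Aβtotal in supernatant was measured by AlphaLISA sandwich (N-terminal JRF/AβN/25 acceptor, biotinylated mid-region 4G8 donor); IC50 from 4-parameter fit of percent control versus log concentration.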

Aβ42 [3] = assay: γ-secretase-modulating activity, Method 1: Aβ42 sandwich ELISA in supernatant of SKNBE2 cells carrying APP 695-wild type (Table 3a); format: cell-based; settings: 18 h, averaged IC50 values
Description: (§1) Pharmacology A) Screening of the Compounds of the Invention for γ-Secretase-Modulating Activity A1) Method 1
(§2) Screening was carried out using SKNBE2 cells carrying the APP 695-wild type, grown in Dulbecco's Modified Eagle's Medium/Nutrient mixture F-12 (DMEM/NUT-mix F-12) (HAM) provided by Gibco (cat no. 31330-38) containing 5% Serum/Fe supplemented with 1% non-essential amino acids. Cells were grown to near confluency.
(§3) The screening was performed using the assay as described in Citron et al (1997) Nature Medicine 3: 67. Briefly, cells were plated in a 96-well plate at about 10^5 cells/ml one day prior to addition of compounds. Compounds were added to the cells in Ultraculture (Lonza, BE12-725F) supplemented with 1% glutamine (Invitrogen, 25030-024) for 18 h. The media were assayed by two sandwich ELISAs, for Aβ42 and Aβtotal. Toxicity of the compounds was assayed by WST-1 cell proliferation reagent (Roche, 1 644 807) according to the manufacturer's protocol.
To quantify the amount of Aβ42 in the cell supernatant, commercially available Enzyme-Linked-Immunosorbent-Assay (ELISA) kits were used (Innotest® β-Amyloid(1-42), Innogenetics N.V., Ghent, Belgium). The Aβ42 ELISA was performed essentially according to the manufacturer's protocol. Briefly, the standards (dilutions of synthetic Aβ1-42) were prepared in polypropylene Eppendorf with final concentrations of 8000 down to 3.9 pg/ml (1/2 dilution step). Samples, standards and blanks (100 μl) were added to the anti-Aβ42-coated plate supplied with the kit (the capture antibody selectively recognizes the C-terminal end of the antigen). The plate was allowed to incubate 3 h at 25° C. in order to allow formation of the antibody-amyloid complex. Following this incubation and subsequent wash steps a selective anti-Aβ-antibody conjugate (biotinylated 3D6) was added and incubated for a minimum of 1 hour (h) in order to allow formation of the antibody-Amyloid-antibody-complex. After incubation and appropriate wash steps, a Streptavidine-Peroxidase-Conjugate was added, followed 30 minutes later by an addition of 3,3′,5,5′-tetramethylbenzidine (TMB)/peroxide mixture, resulting in the conversion of the substrate into a coloured product. This reaction was stopped by the addition of sulfuric acid (0.9 N) and the colour intensity was measured by means of photometry with an ELISA-reader with a 450 nm filter.
To obtain the values reported in Table 3a, the data were calculated as percentage of the maximum amount of amyloid Beta 42 measured in the absence of the test compound. The sigmoidal dose response curves were analyzed using non-linear regression analysis with percentage of the control plotted against the log concentration of the compound. A 4-parameter equation was used to determine the IC50. The values reported in Table 3a are averaged IC50 values.

Aβtotal [4] = assay: γ-secretase-modulating activity, Method 1: Aβtotal sandwich ELISA in supernatant of SKNBE2 cells carrying APP 695-wild type; format: cell-based; settings: Table 3a, 18 h, averaged IC50 values
Description: as §1, §2, §3
To quantify the amount of Aβtotal in the cell supernatant, samples and standards were added to a 6E10-coated plate. The plate was allowed to incubate overnight at 4° C. in order to allow formation of the antibody-amyloid complex. Following this incubation and subsequent wash steps a selective anti-Aβ-antibody conjugate (biotinylated 4G8) was added and incubated for a minimum of 1 h in order to allow formation of the antibody-Amyloid-antibody-complex. After incubation and appropriate wash steps, a Streptavidine-Peroxidase-Conjugate was added, followed 30 minutes later by an addition of Quanta Blu fluorogenic peroxidase substrate according to the manufacturer's instructions (Pierce Corp., Rockford, Ill.).

Row | IC50 (Aβ42 [1]) [nM] | IC50 (Aβtotal [2]) [nM] | IC50 (Aβ42 [3]) [nM] | IC50 (Aβtotal [4]) [nM] | IC50 (Aβ42 [1]; Homo sapiens) [nM] | IC50 (Aβtotal [2]; Homo sapiens) [nM] | IC50 (Aβ42 [3]; Homo sapiens) [nM] | IC50 (Aβtotal [4]; Homo sapiens) [nM] | melting point [°C] | Structure (SMILES)
1 |  |  | 760 | > 3000 |  |  |  |  |  | COc1cc(-c2nc(CC(C)C)c(C)[nH]2)ccc1-n1cnc(C)c1 [Compound 26]
2 |  |  |  |  | 417 | > 10000 | 490 | > 3000 | 157.3 | COc1cc(-c2nc(C)n(-c3ccc(F)cc3)n2)ccc1-n1cnc(C)c1 [Compound 3]
3 |  |  |  |  | 89 | > 10000 |  |  | 193.8 | COc1cc(-c2nc(Nc3cc(C(C)(C)O)ccc3F)n(C)n2)ccc1-n1cnc(C)c1 [Compound 175]
4 |  |  |  |  | 398 | > 10000 |  |  | 183 | COc1cc(-c2nc3n(n2)CCNC3c2ccccc2C(F)(F)F)ccc1-n1cnc(C)c1 (stereo not shown) [Compound 278]
5 |  |  |  |  | 245 | > 10000 |  |  | 190.5 | COc1cc(-c2nc3n(n2)CCCC3c2ccc(F)cc2)ccc1-n1cnc(C)c1 (stereo not shown) [Compound 251]
6 |  |  |  |  | 468 | > 10000 |  |  | 149.3 | COc1cc(-c2nc(-c3ccccc3Cl)n(C)n2)ccc1-n1cnc(C)c1 [Compound 2]
7 |  |  |  |  | 60 | > 10000 |  |  | 189.7 | COc1cc(-c2nc(Nc3ccc(F)cc3C)n(C)n2)ccc1-n1cnc(C)c1 [Compound 130]
8 |  |  |  |  | 6920 | > 10000 |  |  | 145.3 | COc1cc(-c2nc(C(=O)c3ccc(F)cc3)n(C)n2)ccc1-n1cnc(C)c1 [Compound 21]
9 |  |  |  |  | 63 | > 15000 |  |  | 159.3 | COc1cc(-c2nc(Nc3ccccc3C(F)(F)F)n(C)n2)ccc1-n1cnc(C)c1 [Compound 157]

More lines, now with the values behind:

Row | Structure (SMILES) | IC50 (Aβ42 [1]) [nM] | IC50 (Aβtotal [2]) [nM] | IC50 (Aβ42 [3]) [nM] | IC50 (Aβtotal [4]) [nM] | IC50 (Aβ42 [1]; Homo sapiens) [nM] | IC50 (Aβtotal [2]; Homo sapiens) [nM] | IC50 (Aβ42 [3]; Homo sapiens) [nM] | IC50 (Aβtotal [4]; Homo sapiens) [nM] | melting point [°C]
10 | COc1cc(-c2nc(C)c(-c3cccc(C(F)(F)F)c3)n2C)ccc1-n1cnc(C)c1 [Compound 13] | 724 | > 10000 | 1050 | > 3000 |  |  |  |  | 
11 | COc1cc(-c2nc(-c3cccc(C(F)(F)F)c3)c(C)n2C)ccc1-n1cnc(C)c1 [Compound 14] | 282 | 5250 | 500 | > 3000 |  |  |  |  | 
12 | COc1cc(-n2cnc(C)c2)ccc1-c1nc(-c2ccccc2)c(C)[nH]1 [Compound 27] | < 3000 | > 3000 | 170 | > 10000 |  |  |  |  | 
13 | COc1cc(-c2nc(-c3ccccc3)c(C)[nH]2)ccc1-n1cnc(C)n1 [Compound 28] | > 3000 | > 3000 | > 3000 | > 3000 |  |  |  |  | 
14 | Cc1cn(-c2ccc(-c3nc(Nc4cccc(C(F)(F)F)c4)n[nH]3)cn2)cn1 [Compound 24] |  |  |  |  | 1050 | 6610 | 1450 | > 3000 | 
15 | COc1cc(-c2nc(-c3ccccc3)c(C)[nH]2)ccc1-n1ncnc1C [Compound 299] | 8130 | > 10000 | > 3000 | > 3000 |  |  |  |  | 
16 | COc1cc(-c2nc(C)c(-c3cccc(C(F)(F)F)c3)[nH]2)ccc1-n1cnc(C)c1 [Compound 12] |  |  |  |  | 33 | 3630 | 90 | > 3000 | 
17 | COc1cc(-c2nc3n(n2)CCCC3c2ccccc2C(F)(F)F)ccc1-n1cnc(C)c1 (stereo not shown) [Compound 10] |  |  |  |  | 25 | 8320 |  |  | 218
18 | COc1cc(-c2nc3nc(-c4ccccc4C(F)(F)F)ccn3n2)ccc1-n1cnc(C)c1 [Compound 291] |  |  |  |  | 45 | 9770 |  |  | 193.4
19 | COc1cc(-c2nc(Nc3ccccc3C)n(C)n2)ccc1-n1cnc(C)c1 [Compound 97] |  |  |  |  | 49 | > 10000 |  |  | 159.4
20 | COc1cc(-c2nc(C)c(C)[nH]2)ccc1-n1cnc(C)c1 [Compound 25] | 6460 | > 10000 | 2510 | > 3000 |  |  |  |  | 
21 | CCCc1[nH]c(-c2ccc(-n3cnc(C)c3)c(OC)c2)nc1-c1ccccc1 [Compound 29] | 170 | > 10000 | 190 | > 3000 |  |  |  |  | 
